Measurements taken from patent publication US12091684B2, “Platelet-derived mitochondria treatment and method of generating multipotent cells” (Hackensack Meridian Health, Inc., priority 2020, dated 2024).

Experiments:
[1] = biological target: CXCR4 (Homo sapiens, UniProt P61073); settings: 30 μM, 4 hours, purified PB-IPC nuclei with labeled mitochondria
Protocol: To determine whether the action of SDF-1/CXCR4 contributed to the penetration of mitochondria into nuclei, a blocking experiment with CXCR4 receptor antagonist AMD3100 was performed. The purified PB-IPC's nuclei were treated with MitoTracker Deep Red-labeled purified mitochondria in the presence or absence of AMD 3100 (30 μM). The equal concentration of solvent DMSO served as a control. After 4 hours of the treatment, nuclei were washed twice with PBS and prepared for flow cytometry.

[2] = test system: γ-secretase; assay: DAPT-blocking experiment (CD34 expression by flow cytometry); assay type: cell-based, human; settings: PB-IPCs, 10 μM DAPT, 100 μg/mL mitochondria where present, 7-14 days, n=4
Protocol: For a DAPT-blocking experiment, PB-IPCs were treated with 100 μg/mL mitochondria plus 10 μM DAPT (Sigma, Saint Louis, MO, USA, Catalog #D5942) for 7-14 days in non-tissue, culture-treated 24-well plates or Petri dishes with serum-free NutriStem® hPSC XF culture medium (Corning, New York, NY, USA), at 37° C. and 8% CO2. Subsequently, both treated and untreated PB-IPC were collected to examine the expression of CD34 by flow cytometry.

CXCR4, sequence (P61073 whole entry): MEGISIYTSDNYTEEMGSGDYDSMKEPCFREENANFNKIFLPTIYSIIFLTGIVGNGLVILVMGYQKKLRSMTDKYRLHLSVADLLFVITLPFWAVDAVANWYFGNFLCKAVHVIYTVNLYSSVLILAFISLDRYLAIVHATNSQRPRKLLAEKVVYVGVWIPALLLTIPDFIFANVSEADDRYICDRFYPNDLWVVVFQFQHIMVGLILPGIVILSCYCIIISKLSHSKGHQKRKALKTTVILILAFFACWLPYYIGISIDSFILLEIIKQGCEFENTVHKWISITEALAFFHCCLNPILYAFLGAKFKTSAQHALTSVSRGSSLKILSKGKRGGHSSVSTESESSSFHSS

SMILES: c1cc(CN2CCCNCCNCCCNCC2)ccc1CN1CCCNCCNCCCNCC1 [AMD 3100]
- percentage of MitoTracker Deep Red-positive nuclei [1]: markedly reduced

SMILES: C[C@H](NC(=O)Cc1cc(F)cc(F)c1)C(=O)N[C@H](C(=O)OC(C)(C)C)c1ccccc1 [DAPT, N—[N-(3,5-difluorophenacetyl)-L-alanyl]-S-phenylglycine t-butyl ester]
- percentage of CD34+ cells [2]: 2.59%±0.13%
